Data from ChEMBL document CHEMBL4680278 (J Med Chem, 2020).

Legend:
[1] = target: T1, Cytochrome P450 1A2 (Homo sapiens, UniProt P05177); assay: Competitive inhibition of human recombinant CYP1A2 using 7-Ethoxyresorufin as substrate by Lineweaver-Burk plot analysis; format: ADME; details: read-out: Ki(app)
T1 sequence (P05177 whole entry): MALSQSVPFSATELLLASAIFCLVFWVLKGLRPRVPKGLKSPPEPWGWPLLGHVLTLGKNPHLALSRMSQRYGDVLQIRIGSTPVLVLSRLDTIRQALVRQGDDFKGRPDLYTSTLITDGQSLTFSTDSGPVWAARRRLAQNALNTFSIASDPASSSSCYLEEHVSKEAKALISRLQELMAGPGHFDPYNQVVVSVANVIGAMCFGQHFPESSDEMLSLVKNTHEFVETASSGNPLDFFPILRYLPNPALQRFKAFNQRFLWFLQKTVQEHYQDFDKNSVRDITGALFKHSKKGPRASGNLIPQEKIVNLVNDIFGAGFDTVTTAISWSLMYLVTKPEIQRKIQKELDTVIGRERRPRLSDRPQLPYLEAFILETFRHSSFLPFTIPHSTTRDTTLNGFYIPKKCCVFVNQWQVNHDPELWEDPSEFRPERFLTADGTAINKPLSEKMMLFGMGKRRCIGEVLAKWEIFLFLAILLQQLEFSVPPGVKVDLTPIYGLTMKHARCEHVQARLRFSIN

[2] = target: T2, 5-hydroxytryptamine receptor 1A (Homo sapiens, UniProt P08908); assay: Displacement of [3H]8-OH-DPAT from human 5-HT1a receptor expressed in CHO cells incubated for 30 mins by liquid scintillation counting method
T2 sequence (P08908 whole entry): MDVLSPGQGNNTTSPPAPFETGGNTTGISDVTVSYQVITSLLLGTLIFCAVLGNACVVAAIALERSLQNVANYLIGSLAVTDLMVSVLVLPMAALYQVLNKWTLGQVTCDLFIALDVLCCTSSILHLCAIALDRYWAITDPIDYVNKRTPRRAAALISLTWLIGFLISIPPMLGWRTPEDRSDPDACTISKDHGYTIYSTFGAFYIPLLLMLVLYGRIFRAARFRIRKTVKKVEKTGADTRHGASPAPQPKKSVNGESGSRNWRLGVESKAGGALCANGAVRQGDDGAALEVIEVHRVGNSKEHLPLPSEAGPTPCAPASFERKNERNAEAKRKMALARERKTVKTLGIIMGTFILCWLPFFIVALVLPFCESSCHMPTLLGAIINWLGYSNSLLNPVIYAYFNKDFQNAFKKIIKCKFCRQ

[3] = target: T3, Cytochrome P450 2A6 (Homo sapiens, UniProt P11509); assay: Non-competitive inhibition of human recombinant CYP2A6 expressed in baculovirus-infected insect cells using coumarin as substrate preincubated for 5 mins followed by NADPH-generating system addition by Lineweaver-Burk plot analysis; format: ADME
T3 sequence (P11509 whole entry): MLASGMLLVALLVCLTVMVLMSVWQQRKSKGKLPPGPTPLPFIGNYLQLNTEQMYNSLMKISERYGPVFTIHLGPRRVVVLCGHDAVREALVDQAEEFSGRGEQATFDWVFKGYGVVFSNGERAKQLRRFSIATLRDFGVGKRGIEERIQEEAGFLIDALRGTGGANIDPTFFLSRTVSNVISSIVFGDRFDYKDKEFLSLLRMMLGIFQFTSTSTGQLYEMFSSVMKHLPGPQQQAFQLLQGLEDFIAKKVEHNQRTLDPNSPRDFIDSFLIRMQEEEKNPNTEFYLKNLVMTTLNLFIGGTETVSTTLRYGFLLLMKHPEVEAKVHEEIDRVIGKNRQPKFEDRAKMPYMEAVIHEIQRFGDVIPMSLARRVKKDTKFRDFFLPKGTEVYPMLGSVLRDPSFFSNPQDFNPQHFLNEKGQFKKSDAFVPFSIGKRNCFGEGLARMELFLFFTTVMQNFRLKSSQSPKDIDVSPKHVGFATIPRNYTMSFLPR

[4] = Half-life in human at 10 mg/kg, po BID administered for 6 weeks measured weekly for 15 weeks by GC/MS analysis; format: ADME, organism-based; details: in vivo
[5] = target: Delta-type opioid receptor (Homo sapiens, UniProt P41143); assay: Inhibition of delta-type opioid receptor receptor (unknown origin)
Delta-type opioid receptor, sequence (P41143 whole entry): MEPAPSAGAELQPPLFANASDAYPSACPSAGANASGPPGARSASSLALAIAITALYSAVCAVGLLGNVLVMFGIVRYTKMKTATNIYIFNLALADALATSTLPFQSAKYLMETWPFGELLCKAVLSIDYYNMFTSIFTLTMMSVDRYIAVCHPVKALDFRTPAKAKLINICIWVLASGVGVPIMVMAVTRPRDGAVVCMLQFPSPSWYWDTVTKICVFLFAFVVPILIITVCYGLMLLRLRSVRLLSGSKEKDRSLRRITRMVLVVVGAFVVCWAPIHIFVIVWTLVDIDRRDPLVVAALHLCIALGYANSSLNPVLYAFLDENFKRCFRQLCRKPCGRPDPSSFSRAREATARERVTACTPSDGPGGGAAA

[6] = target: T4, Cytochrome P450 1B1 (Homo sapiens, UniProt Q16678); assay: Competitive inhibition of human recombinant CYP1B1 using 7-Ethoxyresorufin as substrate by Lineweaver-Burk plot analysis; format: ADME; details: read-out: Ki(app)
T4 sequence (Q16678 whole entry): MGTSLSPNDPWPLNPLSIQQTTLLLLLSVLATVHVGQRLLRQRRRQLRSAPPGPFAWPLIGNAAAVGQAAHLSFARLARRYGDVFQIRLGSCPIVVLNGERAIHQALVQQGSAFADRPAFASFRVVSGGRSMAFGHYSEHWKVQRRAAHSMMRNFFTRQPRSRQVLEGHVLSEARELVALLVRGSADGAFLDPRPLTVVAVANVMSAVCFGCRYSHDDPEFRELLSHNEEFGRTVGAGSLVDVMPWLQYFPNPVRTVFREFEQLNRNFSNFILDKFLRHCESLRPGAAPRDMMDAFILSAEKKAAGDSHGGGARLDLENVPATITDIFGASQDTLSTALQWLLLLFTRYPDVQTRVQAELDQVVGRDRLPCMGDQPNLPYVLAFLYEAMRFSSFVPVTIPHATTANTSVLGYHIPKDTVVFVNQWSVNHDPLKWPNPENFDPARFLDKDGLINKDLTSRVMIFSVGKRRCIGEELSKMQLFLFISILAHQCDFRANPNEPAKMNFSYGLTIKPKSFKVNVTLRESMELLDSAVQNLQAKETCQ

[7] = target: T5, Cytochrome P450 2C11 (Rattus norvegicus, UniProt P08683); assay: Competitive inhibition of CYP2C11 in rat liver microsomes; format: ADME
T5 sequence (P08683 whole entry): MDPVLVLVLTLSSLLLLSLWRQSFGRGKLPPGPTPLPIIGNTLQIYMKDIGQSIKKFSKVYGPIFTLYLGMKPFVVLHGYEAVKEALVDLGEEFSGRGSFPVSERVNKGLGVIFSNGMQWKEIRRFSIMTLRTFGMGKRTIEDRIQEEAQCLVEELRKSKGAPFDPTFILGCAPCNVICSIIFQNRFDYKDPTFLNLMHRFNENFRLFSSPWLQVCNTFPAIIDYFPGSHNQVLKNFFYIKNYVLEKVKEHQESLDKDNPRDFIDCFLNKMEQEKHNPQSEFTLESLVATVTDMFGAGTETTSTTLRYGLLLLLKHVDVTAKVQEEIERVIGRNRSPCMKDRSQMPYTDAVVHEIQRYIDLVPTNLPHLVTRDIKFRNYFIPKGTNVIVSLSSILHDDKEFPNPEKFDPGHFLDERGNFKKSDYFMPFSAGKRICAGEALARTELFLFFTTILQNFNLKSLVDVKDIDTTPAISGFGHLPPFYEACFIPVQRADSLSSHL

[8] = Critical aggregation concentration of compound by dynamic light scattering; format: physicochemical
[9] = Half-life in human at 20 mg, iv measured after 0.05 to 72 hrs by gas chromatograph mass spectrometry; format: ADME, organism-based; details: in vivo, time 0.05-72 hrs
[10] = Cmax in human plasma at 14+/- 15 mg, po; format: ADME, cell-free; set-up: route oral, dose 14 mg; details: 14 mg
[11] = target: Histamine H3 receptor (Homo sapiens, UniProt Q9Y5N1); assay: Inhibition of histamine H3 receptor (unknown origin)
Histamine H3 receptor, sequence (Q9Y5N1 whole entry): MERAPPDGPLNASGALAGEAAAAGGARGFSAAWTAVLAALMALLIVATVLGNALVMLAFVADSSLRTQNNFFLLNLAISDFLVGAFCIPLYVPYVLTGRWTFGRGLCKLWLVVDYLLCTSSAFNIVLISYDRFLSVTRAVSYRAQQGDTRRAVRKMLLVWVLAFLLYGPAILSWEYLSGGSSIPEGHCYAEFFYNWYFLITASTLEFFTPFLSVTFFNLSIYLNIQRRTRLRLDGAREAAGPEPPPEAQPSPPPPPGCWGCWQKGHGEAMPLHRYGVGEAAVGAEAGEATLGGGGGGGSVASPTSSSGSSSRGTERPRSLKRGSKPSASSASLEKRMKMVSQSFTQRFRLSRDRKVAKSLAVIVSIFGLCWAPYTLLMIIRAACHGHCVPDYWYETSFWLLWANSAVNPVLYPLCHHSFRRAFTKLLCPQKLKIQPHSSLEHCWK

## C=C(C)[C@@H]1CCC(C)=C[C@H]1c1c(O)cc(CCCCC)cc1O [CANNABIDIOL]
[1]
  Ki: 2.69 µM
[2]
  EC50: 8 µM
[3]
  Ki: 55 µM
[4]
  half-life: 48 h
[5]
  Ki: 6.4 µM
[6]
  Ki: 3.63 µM
[7]
  Ki: 20.7 µM
[8]
  CAC: 12.5 µM
[9]
  half-life: 24 h
[10]
  Cmax: 0.9 nM
[11]
  Ki: 3.1 µM
